According to patent US6020374A, “Biologically active synthetic dye compounds” (priority 1998, dated 2000):

Experiments:
IRS-1 [1] = test: IRS-1 tyrosine phosphorylation and association with p85 in FaO cells; format: cell-based, rat; settings: 5 mins., EB 200 μg/ml, insulin 600 ng/ml
Procedure: (§1) FIG. 9 is the tyrosine phosphorylation of the IR cascade in Fao cells: A--Immunoblot analysis: Fao cells were deprived of serum for 20 hours, then incubated with EB, ATA, at 200 μg/ml or insulin at 600 ng/ml for 5 mins. Cell extracts were subjected to immunoprecipitation with antibodies to: IR β-subunit (αIR), IRS-1 (αIRS-1) and to IRS-2 (αIRS-2). The immunoprecipitates and total cell extracts were analyzed by SDS-PAGE. Proteins were transferred to nitrocellulose papers, and phosphotyrosine containing proteins were probed with anti-phosphotyrosine antibodies (αP-Tyr), antibody to the 85-kDa subunit of PI3-kinase (αp85) and antibodies to active MAPK (α active MAPK). The immunoblots were visualized by ECL (Amersham).
(§2) MCF-7 cells were grown in 35 or 100 mm dishes in DMEM with 5% bovine fetal serum. Rat hepato FaO cells were grown in RPMI 1640 medium supplemented with 10% fetal calf serum. Subconfluent monolayers of MCF-7 cells or FaO cells, were deprived of serum for 20 hours prior to each experiment. The medium was removed, and cells were incubated at 37° C. under the conditions as indicated for each experiment. […]
(§3) Nitrocellulose blots of proteins were incubated with the antibodies, and proteins were detected by enhanced chemiluminescence using horseradish peroxidase-labeled protein A, horseradish peroxidase-labeled anti rabbit IgG or horseradish peroxidase-labeled anti-mouse IgG. […]

IRS-2 [2] = test: IRS-2 tyrosine phosphorylation and association with p85 in FaO cells; format: cell-based, rat; settings: 5 mins., EB 200 μg/ml, insulin 600 ng/ml
Procedure: as §1, §2, §3

MAPKs 1 and 2 = test: Activation of MAPKs in FaO cells; format: cell-based, rat; settings: 5 mins., EB 200 μg/ml, insulin 600 ng/ml
Procedure: as §1
(§4) Nitrocellulose blots of proteins were incubated with the antibodies, and proteins were detected by enhanced chemiluminescence using horseradish peroxidase-labeled protein A, horseradish peroxidase-labeled anti rabbit IgG or horseradish peroxidase-labeled anti-mouse IgG.
In the rat hepatoma cell line FaO, EB and insulin, enhanced IRS-1 and IRS-2 tyrosine phosphorylation and their association with the 85-kDa regulatory subunit of the PI-kinase (FIG. 9A). PI3-kinase activity increases following its association with IRS-1 and IRS-2 (FIG. 9C). MAPKs 1 and 2 were activated by EB and insulin (FIG. 9A).

[3] = tested on: IR, IRS-1 and the 85-kDa regulatory subunit of PI3-kinase; test: In vivo tyrosine phosphorylation of the IR cascade in rat liver; settings: Sprague-Dawley male rats, portal vein injection, EB 20 mg/rat, insulin 1 u/rat
Procedure: A--Immunoblot analysis. Rat liver extracts were subjected to immunoprecipitation and blotting with the indicated antibodies, as described in the legend to FIG. 9A.
(§5) EB (20 mg/rat) or insulin (1 u/rat) was injected into about 120 g weighing Sprague-Dawley male rats, via the portal vein. Control rats were injected with saline (SAL) alone. The rats were killed and the livers excised and frozen in liquid nitrogen at the indicated times.

PI3-kinase = test: In vivo PI3-kinase activity in rat liver; settings: Sprague-Dawley male rats, portal vein, 5 mins. after injection, EB 20 mg/rat, insulin 1 u/rat
Procedure: B--Induction of PI3-kinase. PI3-kinase activity, 5 mins. after injection was assayed as described in FIG. 9C. The results are representative of 2 to 4 independent experiments.
as §5

3T3 L1 adipocytes [4] = test: 2-deoxyglucose uptake in 3T3 L1 adipocytes; format: cell-based; settings: 20 mins., EB, ATA 200 μg/ml, insulin 600 ng/ml
Procedure: (§6) FIG. 11 is the metabolic effects in 3T3 L1 adipocytes: Fully differentiated 3T3 L1 adipocytes were incubated with EB, ATA or fuchsin (FUCH) each at 200 μg/ml, or with 600 ng/ml of insulin for 20 mins. (A, B, C) or 5 mins. (D). CON indicates no additive.
A--2-deoxyglucose uptake. Hexose uptake was measured for 10 mins. using 50 μM 2-deoxy-(^3 H) glucose (1 μCi/ml). Non-specific uptake was determined in the presence of cytochalasin B (50 μM).

3T3 L1 adipocytes [5] = test: Glycogen synthesis in 3T3 L1 adipocytes; format: cell-based; settings: 20 mins., EB, ATA 200 μg/ml, insulin 600 ng/ml
Procedure: as §6
B--Glycogen synthesis. Cells were incubated with (^14 C)-glucose for 10 mins. Radioactivity was determined in the precipitated glycogen fraction.

3T3 L1 adipocytes [6] = test: Lipogenesis in 3T3 L1 adipocytes; format: cell-based; settings: 20 mins., EB, ATA 200 μg/ml, insulin 600 ng/ml
Procedure: as §6
C--Lipogenesis. Cells were incubated with 5 mM(U-^14 C) glucose (1 μCi/ml) for 60 mins. Radioactivity was determined in the cellular lipid fraction.

[7] = tested on: 185 kDa protein(s) (p185); test: Tyrosine phosphorylation of p185 in MCF-7 cells (anti-phosphotyrosine immunoblot); format: cell-based; settings: MCF-7 cells, 5 mins., IGF-1 at 20 ng/ml
Procedure: FIG. 1 is the effect of ATA and EB on tyrosine phosphorylation: MCF-7 cells, grown in 35 mm dishes were solubilized in Buffer A (a) or Buffer B (b-c). The solubilized cells were subjected to 7.5% SDS-PAGE and immunoblotted with an anti-phosphotyrosine antibody. (a) Cells treated for 5 mins. with ATA, EB, each at 300 μg/ml, IGF-1 at 20 ng/ml, or without additives (CON); (b) Cells treated with 300 μg/ml ATA for the indicated times; (c) Cells treated with 30 μg/ml EB for the indicated times; (d) Cells treated for 5 mins. with the indicated concentrations of ATA; (e) Cells treated for 5 mins. with the indicated concentrations of EB. Molecular mass markers (in kDa) are indicated on the right.
FIG. 2 is the effect of ATA and vanadate on the IGF-1 stimulated tyrosine phosphorylation of p185: A--Cells treated for 5 mins. with the indicated concentrations of IGF-1 in the presence or absence of 300 μg/ml ATA; B--Cells pre-incubated for 3 hours with or without 50 μM vanadate were incubated for 5 mins. with ATA, EB each at 300 μg/ml or with 10 ng/ml IGF-1 in the presence or absence of vanadate. Cytosols extracted in Buffer B were analyzed by immunoblotting with anti-phosphotyrosine antibody as in FIG. 1.
FIG. 8 is the effect of fractionated ATA on p185 phosphorylation: A--Crude ATA was separated on a Bio-Rad P-4 column and the combined void volume was then gel filtrated on a column of Bio-Rad P-10. The column was calibrated with the following molecular weight markers: DB-Dextran blue; CC-cytochrome C: Ins-insulin; B12-Vitamin B12. B--MCF-7 cells were incubated for 5 mins. with the indicated fractions of ATA (eluted from the P-10 column shown in A), crude ATA, each at 200 μg/ml or IGF-1 at 20 ng/ml. Cytosols, solubilized in Buffer B were subjected to 7.5% SDS-PAGE and immunoblotted with phosphotyrosine antibody.
MCF-7 cells were grown in 35 or 100 mm dishes in DMEM with 5% bovine fetal serum. Rat hepato FaO cells were grown in RPMI 1640 medium supplemented with 10% fetal calf serum. Subconfluent monolayers of MCF-7 cells or FaO cells, were deprived of serum for 20 hours prior to each experiment. The medium was removed, and cells were incubated at 37° C. under the conditions as indicated for each experiment. The reaction was terminated by removing the medium and freezing the monolayers with liquid nitrogen. In some experiments, cells were preincubated with 50 μM sodium orthovanadate for 3 hours.
Cells were solubilized at 4° C. with 0.2 ml/35 mm dish or 2 ml/100 mm dish of the indicated buffer. The solubilized cells were scraped and sedimented by centrifugation at 12,000×g for 30 mins. at 4° C. Aliquots of the supernatants were normalized for protein, mixed with concentrated (5×) Laemmli sample buffer, boiled for 10 mins. and resolved on 7.5 or 12% SDS-PAGE under reducing conditions.
as §4

MCF-7 cells = test: Cell death estimation, cycloheximide-exposed MCF-7 cells (trypan blue); format: cell-based; settings: 30 μg CX, 48 hours, IGF-1 20 μg/ml
Procedure: Subconfluent cultures of MCF-7 cells in 35 mm dishes, were deprived of serum for 20 hours and then exposed to 30 μg/ml cycloheximide in the presence or absence of increasing concentrations of fractionated ATA, crude ATA or EB. After 48 hours, the cells were detached with trypsin. The medium and the detached cells were pooled and centrifuged at 1000×g for 10 mins. Cell viability was estimated by adding an equivalent volume of trypan blue solution to an aliquot of suspended cells. Stained and unstained cells were counted on a hemocytometer (10^3 cells were counted for each determination).
Subconfluent, 20 hours starved MCF-7 cells were exposed to 30 μg/ml
of cycloheximide in the presence of increasing
concentrations of fractionated ATA (0, 6, 12, 25, 50 μg/ml). After
48 hours, percent of dead cells was
determined as described under "Experimental procedures". In the
presence of cycloheximide only, 60-70% of
the cells were dead after 48 hours.
Cultures of […] cells were exposed to 30 μg CX for 48 hours in the presence of EB, ATA, IGF-1, or nothing.

IRS-1 [8] = test: IRS-1 tyrosine phosphorylation and association with p85/Grb2 in MCF-7 cells; format: cell-based; settings: 5 mins., ATA or EB 300 μg/ml, IGF-1 20 ng/ml
Procedure: FIG. 3 is the effect of ATA and EB on tyrosine phosphorylation or IRS-1: MCF-7 cells grown in 100 mm dishes, were treated with ATA or EB, each at 300 μg/ml, or 20 ng/ml IGF-1 for 5 mins. Total cell extracts, solubilized in Buffer A, were subjected to immunoprecipitation with antibodies to IRS-1 (a) or Grb2 (b). The immunocomplexes, precipitated with protein G-Sepharose beads, were subjected to 7.5% SDS-PAGE followed by immunoblotting with a phosphotyrosine antibody, an antibody to the 85-kDa subunit of PI3-kinase or antibody to IRS-1.
(§7) Cells were solubilized in Buffer A or C. Extracts were immunoprecipitated at 4° C. with antibodies to IRS-1, IRS-2, IGF-1 or IR receptor or Grb2, adsorbed on protein A-Sepharose beads. The immunocomplexes were pelleted by centrifugation at 12,000×g and washed twice with Buffer A, and twice with Buffer A containing 0.1% Triton x-100. The pellets were then suspended in Laemmli sample buffer and resolved on 7.5% SDS-PAGE.
as §4
(§8) MCF-7 cells were stimulated with ATA, EB or IGF-1, solubilized and immunoprecipitated with anti IRS-1 or IRS-2 antibodies, separated by SDS-PAGE and immunoblotted with anti-phosphotyrosine antibody. […] The association of IRS-1 with Grb-2 was evaluated in lysates from treated cells which were immunoblotted with antibodies to either phosphotyrosine or IRS-1.

IRS-2 [9] = test: IRS-2 association with p85 of PI3-kinase in MCF-7 cells; format: cell-based; settings: 5 mins., ATA or EB 300 μg/ml, IGF-1 20 ng/ml
Procedure: FIG. 4 is the effect of ATA and EB on tyrosine phosphorylation of IRS-2: MCF-7 cells were treated as in FIG. 3. Total cell extracts, solubilized in Buffer C, were immunoprecipitated with an antibody to IRS-2. The immunocomplexes, precipitated with protein A-Sepharose beads were subjected to 7.5% SDS-PAGE, followed by immunoblotting with a phosphotyrosine antibody and an antibody to the 85-kDA subunit of PI3-kinase.
as §7, §4, §8

[10] = tested on: MAPK-1 (44 kDa) and MAPK-2 (42 kDa); test: Activation of MAPKs in MCF-7 cells (anti-active MAPK immunoblot); format: cell-based; settings: 5 mins., ATA, EB each at 300 μg/ml, IGF-1 20 or 40 ng/ml
Procedure: FIG. 7 is the effect of ATA and EB on activation of MAPKs: MCF-7 cells were treated for 5 mins. with ATA, EB, each at 300 μg/ml, 20 ng/ml or 40 ng/ml IGF-1. Cell lysates, solubilized in Buffer C, were subjected to 12% SDS-PAGE and immunoblotted with an anti-active MAPK antibody. The membrane, after ECL detection, was stripped of bound antibody and blotted with an anti-MAPK antibody.
as §4
The activated forms of MAPKs were detected by anti-active MAPK immunoblotting in the MCF-7 cell's lysates. […] Blotting with anti MAPKs antibodies confirms that similar amounts of MAPKs were present in treated and non-treated cells.

Compound	IRS-1 tyrosine phosphorylation and association with the 85-kDa regulatory subunit of PI-kinase (IRS-1 [1])	IRS-2 tyrosine phosphorylation and association with the 85-kDa regulatory subunit of PI-kinase (IRS-2 [2])	Activation of MAPKs 1 and 2 (MAPKs 1 and 2)	Tyrosine phosphorylation of IR, IRS-1 and 85-kDa subunit of PI3-kinase in liver [3]	PI3-kinase activity in liver (PI3-kinase)	Glucose uptake (3T3 L1 adipocytes [4])	Glycogen synthesis (3T3 L1 adipocytes [5])	Lipogenesis (3T3 L1 adipocytes [6])	Tyrosine phosphorylation of a 185 kDa protein(s) ([7]; ATA, EB each at 300 μg/ml)	pp185 (arbitrary units) ([7]; scanned autoradiogram from FIG. 8B, Control 100)	Percent dead cells (MCF-7 cells) [%]	Association of IRS-1 with Grb-2 (IRS-1 [8])	Association of p85 subunit of PI3-k with IRS-1 (IRS-1 [8])	Phosphorylation of IRS-1 (IRS-1 [8])	Association of p85 subunit of PI3-k with IRS-2 (IRS-2 [9])	Phosphorylated (active) isoforms MAPK-1 and MAPK-2 [10]
insulin: The hormone insulin	enhanced	enhanced	activated	phosphorylated tyrosines of IR, IRS-1 and the 85-kDa of the regulatory subunit of PI3-kinase	increased	increase glucose uptake	increase	increase								
IGF-1: Recombinant human IGF-1 from Boehringer Mannheim									enhanced tyrosine phosphorylation of a 185 kDa protein(s)	1,751 arbitrary units	15 ± 4	IRS-1 co-precipitated with Grb2	p85 precipitates with IRS-1	stimulated the phosphorylation of IRS-1	p85 precipitates	clearly detected
CCCCCCCCCCCCCC(=O)O[C@@H]1[C@@H](C)[C@@]2(O)[C@@H](C=C(CO)C[C@]3(O)C(=O)C(C)=C[C@@H]23)[C@@H]2C(C)(C)[C@]12OC(C)=O [TPA, reference compound]																clearly detected
